According to US11964953B2, “Substituted aminothiazoles as DGKzeta inhibitors for immune activation” (Bayer Aktiengesellschaft, priority 2020, dated 2024):

What follows are molecules tested against human DGKζ (Homo sapiens (Human), UniProt Q13574) (assay: Human DGKζ kinase activity inhibition assay (ADP-Glo)). Details: in vitro human DGKζ kinase activity inhibition assay; read-out: IC50.
human DGKζ, sequence (Q13574 other isoform, or with tags, fused parts or gaps): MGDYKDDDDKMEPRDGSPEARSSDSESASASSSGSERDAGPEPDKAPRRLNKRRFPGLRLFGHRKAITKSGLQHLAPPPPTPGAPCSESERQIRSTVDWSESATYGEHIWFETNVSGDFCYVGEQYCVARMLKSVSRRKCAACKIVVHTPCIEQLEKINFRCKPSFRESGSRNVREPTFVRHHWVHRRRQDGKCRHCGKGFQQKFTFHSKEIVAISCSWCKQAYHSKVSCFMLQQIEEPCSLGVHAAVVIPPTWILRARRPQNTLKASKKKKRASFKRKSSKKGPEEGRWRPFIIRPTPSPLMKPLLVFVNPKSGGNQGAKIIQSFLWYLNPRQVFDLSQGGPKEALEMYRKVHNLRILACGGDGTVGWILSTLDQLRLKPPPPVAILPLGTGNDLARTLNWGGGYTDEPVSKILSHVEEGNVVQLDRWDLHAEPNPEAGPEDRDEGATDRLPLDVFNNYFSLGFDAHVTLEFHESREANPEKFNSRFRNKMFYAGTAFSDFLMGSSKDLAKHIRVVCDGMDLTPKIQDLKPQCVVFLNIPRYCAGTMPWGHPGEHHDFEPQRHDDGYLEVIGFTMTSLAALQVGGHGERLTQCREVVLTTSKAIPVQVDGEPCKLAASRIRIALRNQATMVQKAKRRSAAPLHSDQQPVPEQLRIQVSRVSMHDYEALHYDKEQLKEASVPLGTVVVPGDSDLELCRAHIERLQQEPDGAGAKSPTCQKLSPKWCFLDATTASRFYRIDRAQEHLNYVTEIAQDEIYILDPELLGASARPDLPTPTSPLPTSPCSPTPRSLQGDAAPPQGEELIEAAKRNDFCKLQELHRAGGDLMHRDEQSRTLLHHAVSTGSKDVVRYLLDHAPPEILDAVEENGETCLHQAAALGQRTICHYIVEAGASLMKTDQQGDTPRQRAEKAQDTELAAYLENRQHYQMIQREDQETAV
Type: biochemical
In short: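 ADP-Glo luminescence, reflecting ADP produced, served as the readout of activity. Full-length human DGKζ, FLAG-tagged at the C-terminus and insect-cell expressed, was used; lipid substrate mix was sonicated with octyl-β-D-glucopyranoside in 50 mM MOPS pH 7.4.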
With `CC(C(N)=O)N(c1ccc(C#N)cc1)c1nc(N)c(C(=O)c2ccccc2)s1` (racemic) [Example 9, rac-2-(N-(4-amino-5-benzoyl-thiazol-2-yl)-4-cyano-anilino)propanamide] the IC50 was 536 nM.
For `CC(C(N)=O)N(c1cnn(C)c1)c1nc(N)c(C(=O)c2ccccc2)s1` (single isomer, unassigned) [Example 78.1, 2-[(4-amino-5-benzoyl-thiazol-2-yl)-(1-methylpyrazol-4-yl)amino]propanamide], the IC50 was greater than 20000 nM.
In the case of `Cc1cc(NC(=O)COc2ccc(C(=O)c3sc(N(c4ccc(F)cc4)C(C)C(N)=O)nc3N)cc2)no1` (racemic) [Example 103, rac-2-(N-[4-amino-5-[4-[2-[(5-methylisoxazol-3-yl)amino]-2-oxo-ethoxy]benzoyl]thiazol-2-yl]-4-fluoro-anilino)propanamide], the IC50 is reported as 41.9 nM.
`CC(C(N)=O)N(c1ccc(Cl)cc1)c1nc(N)c(C(=O)c2ccc(OC(F)F)cc2)s1` (single isomer, unassigned) [Example 47.1, 2-(N-[4-amino-5-[4-(difluoromethoxy)benzoyl]thiazol-2-yl]-4-chloro-anilino)propanamide] gave an IC50 of 1020 nM.
`COc1ccc(N(c2nc(N)c(C(=O)c3ccccc3)s2)C(C)C(N)=O)c(C)c1` (racemic) [Example 1, rac-2-(N-(4-amino-5-benzoyl-thiazol-2-yl)-4-methoxy-2-methyl-anilino)propanamide] showed an IC50 of 946 nM.
In the case of `COc1ccc(C(=O)c2sc(N(c3ccc(Cl)c(F)c3)[C@H](C)C(N)=O)nc2N)cc1` [Example 59.1, (R)-2-(N-[4-amino-5-(4-methoxybenzoyl)thiazol-2-yl]-4-chloro-3-fluoro-anilino)propanamide], the IC50 is reported as 4 nM.
With `CCOC(=O)COc1ccc(C(=O)c2sc(N(c3ccc(F)cc3)C(C)C(N)=O)nc2N)cc1` (single isomer, unassigned; enantiomer 2) [Example 81.2, ethyl 2-[4-[4-amino-2-(4-fluoro-N-[2-amino-1-methyl-2-oxo-ethyl]anilino)thiazole-5-carbonyl]phenoxy]acetate (enantiomer 2)] the IC50 was 10.1 nM.
With `CC(C(N)=O)N(c1ccc(F)cc1)c1nc(N)c(C(=O)c2ccc(OCC(=O)NCCN3CCCCC3)cc2)s1` (racemic) [Example 89, rac-2-(N-[4-amino-5-[4-[2-oxo-2-[2-(1-piperidyl)ethylamino]ethoxy]benzoyl]thiazol-2-yl]-4-fluoro-anilino)propanamide] the IC50 was 131 nM.
For `Cc1cccc(N(c2nc(N)c(C(=O)c3ccccc3)s2)C(C)C(N)=O)c1` (racemic) [Example 76, rac-2-(N-(4-amino-5-benzoyl-thiazol-2-yl)-3-methyl-anilino)propanamide], the IC50 was 252 nM.
In the case of `CC(C(N)=O)N(c1ccc(OC(F)(F)F)c(F)c1)c1nc(N)c(C(=O)c2ccc(OC(F)F)cc2)s1` (racemic) [Example 219, rac-2-[N-[4-amino-5-[4-(difluoromethoxy)benzoyl]thiazol-2-yl]-3-fluoro-4-(trifluoromethoxy)anilino]propanamide], the IC50 is reported as 13 nM.
With `Cc1cc(C(=O)c2sc(N(c3ccc(F)cc3)C(C)C(N)=O)nc2N)ccn1` (single isomer, unassigned) [Example 187.2, 2-(N-[4-amino-5-(2-methylpyridine-4-carbonyl)thiazol-2-yl]-4-fluoro-anilino)propanamide] the IC50 was greater than 20000 nM.
In the case of `CC(C(N)=O)N(c1ccc(Cl)c(F)c1)c1nc(N)c(C(=O)c2ccc(O)cc2)s1` (single isomer, unassigned; enantiomer 2) [Example 290, 2-(N-[4-amino-5-(4-hydroxybenzoyl)thiazol-2-yl]-4-chloro-3-fluoro-anilino)propanamide (enantiomer 2)], the IC50 is reported as 936 nM.
`CC(C(N)=O)N(c1ccc(F)cc1)c1nc(N)c(C(=O)c2ccc(C(F)(F)F)cc2)s1` (racemic) [Example 42, rac-2-(N-[4-amino-5-[4-(trifluoromethyl)benzoyl]thiazol-2-yl]-4-fluoro-anilino)propanamide] showed an IC50 of 11.3 nM.
In the case of `COc1ccc(C(=O)c2sc(N(c3ccc4c(c3)OC(F)(F)O4)C(C)C(N)=O)nc2N)cc1` (racemic) [Example 212, rac-2-[[4-amino-5-(4-methoxybenzoyl)thiazol-2-yl]-(2,2-difluoro-1,3-benzodioxol-5-yl)amino]propanamide], the IC50 is reported as 41 nM.
